Assays:
EGFR exon 20ins = settings: advanced non-small cell lung cancer; cited from earlier work
[1] = tested on: Lung cancer LU0387PDX model; experiment: Pharmacodynamic study on lung cancer LU0387PDX model; type: in vivo, mice; settings: LU0387 model, 30 mg/kg, P.O, QD * 13 days
Source text: Lung cancer LU0387PDX model is a commonly used xenograft tumor model from Crown Bioscience, the experimental situation of this model is described as follows: after euthanasia of tumor-bearing mice, the tumor blocks were dissected out in aseptic condition, the blocks were cleaned to remove blood stains and connective tissues and necrotic parts, and the tumors were cut into small pieces of 2*2*2 mm^3, and inoculated with an adapter needle in sterilized experimental mice subcutaneously on the right dorsal side. Tumor growth was regularly observed, and when the tumors grew to an average volume of 100~200 mm^3, mice were randomly grouped according to tumor size and body weight for drug administration. Before the start of drug administration, all animals were weighed and the tumor volume was measured with vernier calipers. Mice were randomly grouped according to tumor volume to ensure that tumor volumes were similar between groups. Three mice in each group were administered orally once daily, and the inoculation site was observed after administration. Tumor volume and mouse body weight were measured twice a week. The experimental design and results were shown in Table 9, wherein P.O referred to administered orally; QD: once a day; TGI (Tumor volume inhibition rate)=(1-Tumor weight of the treatment group/Tumor weight of the control group)*100%.

PC9 = experiment: Cell proliferation inhibition (CellTiter-Glo) on cell line PC9; type: cell-based; settings: Homo sapiens, PC-9
Protocol: (§1) The cell lines NCI-H1975 and PC9 selected for the experiments were provided by Sino-American Guanke Biotechnology (Beijing) Co. and were validated prior to use in this study.
(§2) A 10× stock of the compound to be tested was prepared for use, with 9 concentrations in 4-fold gradient dilution, diluted from 10 μM.
(§3) The logarithmic growth phase cell suspension was inoculated into a 96-well culture plate with 90 μL volume per well (2000 cells/well). 10 μL of 10× Compound to be tested was added to the plate according to the plate spreading diagram, and then mixed well. The plate was incubated in a 5% CO2 incubator at 37° C. The proliferation inhibitory activity of the compound was determined by the CellTiter-Glo method. Cell proliferation inhibition rate (Inhibition Rate) data were plotted using GraphPad Prism 8.0 software for cell viability curves and IC50 values were calculated.

NCI-H1975 = experiment: Cell proliferation inhibition (CellTiter-Glo) on cell line NCI-H1975; type: cell-based; settings: Homo sapiens
Protocol: as §1, §2, §3

[2] = target: Ba/F3-FL-EGFR-A763-Y764 ins FQEA (Homo sapiens, UniProt P00533, INS763FQEA, cells depend on it); experiment: Cell proliferation inhibition (CellTiter-Glo), EGFR exon 20 insertion engineered cells; type: cell-based; settings: 72 h, read-out: IC50, Ba/F3-FL-EGFR A763-Y764ins FQEA
Chain of Ba/F3-FL-EGFR-A763-Y764 ins FQEA (P00533 with tags, fused parts or gaps INS763FQEA): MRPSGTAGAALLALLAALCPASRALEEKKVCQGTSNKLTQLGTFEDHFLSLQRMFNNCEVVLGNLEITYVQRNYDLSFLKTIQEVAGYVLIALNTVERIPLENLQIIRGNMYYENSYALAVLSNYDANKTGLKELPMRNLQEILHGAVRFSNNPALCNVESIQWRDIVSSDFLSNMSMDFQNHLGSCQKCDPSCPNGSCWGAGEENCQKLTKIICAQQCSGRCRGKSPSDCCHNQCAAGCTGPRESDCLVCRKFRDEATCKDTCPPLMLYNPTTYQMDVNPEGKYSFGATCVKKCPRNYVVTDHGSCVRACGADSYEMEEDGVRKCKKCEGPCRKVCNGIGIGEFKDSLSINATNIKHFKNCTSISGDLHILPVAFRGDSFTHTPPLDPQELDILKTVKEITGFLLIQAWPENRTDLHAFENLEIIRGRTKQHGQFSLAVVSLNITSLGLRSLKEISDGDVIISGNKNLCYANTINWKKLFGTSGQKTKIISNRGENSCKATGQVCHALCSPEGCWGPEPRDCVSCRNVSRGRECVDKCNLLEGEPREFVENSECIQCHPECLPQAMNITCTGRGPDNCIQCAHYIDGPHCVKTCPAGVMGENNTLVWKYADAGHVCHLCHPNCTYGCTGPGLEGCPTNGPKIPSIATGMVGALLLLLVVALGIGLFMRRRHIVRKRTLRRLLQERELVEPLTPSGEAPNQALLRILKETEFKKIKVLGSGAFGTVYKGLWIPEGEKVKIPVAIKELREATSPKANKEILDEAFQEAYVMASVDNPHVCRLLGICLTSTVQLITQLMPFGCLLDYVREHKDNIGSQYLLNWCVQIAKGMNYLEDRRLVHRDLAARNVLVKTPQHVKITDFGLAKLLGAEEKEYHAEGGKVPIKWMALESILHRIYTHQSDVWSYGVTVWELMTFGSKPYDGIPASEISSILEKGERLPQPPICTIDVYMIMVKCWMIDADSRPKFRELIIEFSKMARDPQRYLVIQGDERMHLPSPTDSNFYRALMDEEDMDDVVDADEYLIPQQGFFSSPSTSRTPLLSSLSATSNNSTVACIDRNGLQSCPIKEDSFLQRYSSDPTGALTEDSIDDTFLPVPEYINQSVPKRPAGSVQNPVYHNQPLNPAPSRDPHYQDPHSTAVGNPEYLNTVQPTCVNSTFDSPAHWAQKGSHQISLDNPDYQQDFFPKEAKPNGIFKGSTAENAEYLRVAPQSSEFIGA
Protocol: (§4) The selected engineering cells Ba/F3-FL-EGFR-V769-D770 ins ASV, Ba/F3-FL-EGFR-D770-N771 ins SVD, Ba/F3-FL-EGFR-H773-V774 ins NPH, Ba/F3-FL-EGFR-A763-Y764 ins FQEA, Ba/F3-HER2-A775-G776 ins YVMA were provided by Hefei PreceDo Biomedical Technology Co., LTD and were validated prior to use in this study.
(§5) A 20× stock of the compound to be tested was prepared for use, with 9 concentrations in 3-fold gradient dilution, diluted from 1 μM.
(§6) The logarithmic growth phase cell suspension was inoculated into 96-well white cell culture plates with 95 μL volume per well (2000 cells/well). 5 μL of 20× Compound to be tested was added to the plate containing 95 μL of cell suspension according to the plate spreading diagram, and then mixed well. The plate was incubated in a 5% CO2 incubator at 37° C. for 72 h. The proliferation inhibition activity of the compounds was determined by the CellTiter-Glo method, and the fluorescence value per well, RLU, was obtained from the SpectraMax Paradigm reading. Inhibition Rate data were processed using the following formula: Inhibition Rate (Inh %)=100−(RLU compound−RLU blank)/(RLU control−RLU blank)*100%. The cell viability corresponding to different concentrations of compounds was calculated in EXCEL, and then GraphPad Prism software was used to plot the cell viability curve and calculate the IC50 value.

[3] = target: Ba/F3-FL-EGFR-D770-N771 ins SVD (Homo sapiens, UniProt P00533, DUP768-770, cells depend on it); experiment: as above; type: cell-based; settings: 72 h, read-out: IC50, Ba/F3-FL-EGFR D770-N771ins SVD
Protocol: as §4, §5, §6

[4] = target: Ba/F3-FL-EGFR-H773-V774 ins NPH (Homo sapiens, UniProt P00533, DUP771-773, cells depend on it); experiment: as above; type: cell-based; settings: 72 h, read-out: IC50, Ba/F3-FL-EGFR H773-V774ins NPH
Chain of Ba/F3-FL-EGFR-H773-V774 ins NPH (P00533 with tags, fused parts or gaps DUP771-773): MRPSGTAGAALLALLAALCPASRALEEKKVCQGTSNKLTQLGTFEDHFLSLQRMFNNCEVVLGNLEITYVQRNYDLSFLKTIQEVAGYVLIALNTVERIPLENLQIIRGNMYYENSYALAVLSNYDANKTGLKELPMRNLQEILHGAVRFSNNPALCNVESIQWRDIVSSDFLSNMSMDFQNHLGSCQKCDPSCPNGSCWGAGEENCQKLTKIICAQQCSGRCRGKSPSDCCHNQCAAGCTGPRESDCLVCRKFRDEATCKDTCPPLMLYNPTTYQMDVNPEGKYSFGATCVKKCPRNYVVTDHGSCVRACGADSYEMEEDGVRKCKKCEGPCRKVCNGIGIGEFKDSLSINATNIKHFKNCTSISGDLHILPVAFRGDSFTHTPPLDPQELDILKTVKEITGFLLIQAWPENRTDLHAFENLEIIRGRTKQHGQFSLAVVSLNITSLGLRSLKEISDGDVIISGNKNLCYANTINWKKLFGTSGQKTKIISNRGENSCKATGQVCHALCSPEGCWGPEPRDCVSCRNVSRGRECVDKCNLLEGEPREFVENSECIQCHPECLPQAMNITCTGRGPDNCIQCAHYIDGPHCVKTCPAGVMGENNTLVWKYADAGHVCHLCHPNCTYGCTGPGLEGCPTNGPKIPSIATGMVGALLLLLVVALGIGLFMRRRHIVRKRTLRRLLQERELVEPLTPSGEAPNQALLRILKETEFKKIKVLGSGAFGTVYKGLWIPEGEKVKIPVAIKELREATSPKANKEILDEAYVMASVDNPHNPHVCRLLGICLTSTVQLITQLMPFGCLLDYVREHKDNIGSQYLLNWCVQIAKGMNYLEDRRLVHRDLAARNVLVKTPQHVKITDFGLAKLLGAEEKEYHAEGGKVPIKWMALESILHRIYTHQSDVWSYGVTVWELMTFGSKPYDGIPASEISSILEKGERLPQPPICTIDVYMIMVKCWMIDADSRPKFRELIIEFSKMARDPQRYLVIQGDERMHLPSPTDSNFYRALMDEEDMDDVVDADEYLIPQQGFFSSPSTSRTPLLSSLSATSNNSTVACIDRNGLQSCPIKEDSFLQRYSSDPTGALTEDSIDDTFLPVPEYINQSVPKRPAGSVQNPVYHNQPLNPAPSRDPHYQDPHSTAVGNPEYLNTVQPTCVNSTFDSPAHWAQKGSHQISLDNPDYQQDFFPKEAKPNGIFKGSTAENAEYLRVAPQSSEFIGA
Protocol: as §4, §5, §6

[5] = target: Ba/F3-FL-EGFR-V769-D770 ins ASV (Homo sapiens, UniProt P00533, DUP767-769, cells depend on it); experiment: as above; type: cell-based; settings: 72 h, read-out: IC50, Ba/F3-FL-EGFR V769-D770ins ASV
Chain of Ba/F3-FL-EGFR-V769-D770 ins ASV (P00533 with tags, fused parts or gaps DUP767-769): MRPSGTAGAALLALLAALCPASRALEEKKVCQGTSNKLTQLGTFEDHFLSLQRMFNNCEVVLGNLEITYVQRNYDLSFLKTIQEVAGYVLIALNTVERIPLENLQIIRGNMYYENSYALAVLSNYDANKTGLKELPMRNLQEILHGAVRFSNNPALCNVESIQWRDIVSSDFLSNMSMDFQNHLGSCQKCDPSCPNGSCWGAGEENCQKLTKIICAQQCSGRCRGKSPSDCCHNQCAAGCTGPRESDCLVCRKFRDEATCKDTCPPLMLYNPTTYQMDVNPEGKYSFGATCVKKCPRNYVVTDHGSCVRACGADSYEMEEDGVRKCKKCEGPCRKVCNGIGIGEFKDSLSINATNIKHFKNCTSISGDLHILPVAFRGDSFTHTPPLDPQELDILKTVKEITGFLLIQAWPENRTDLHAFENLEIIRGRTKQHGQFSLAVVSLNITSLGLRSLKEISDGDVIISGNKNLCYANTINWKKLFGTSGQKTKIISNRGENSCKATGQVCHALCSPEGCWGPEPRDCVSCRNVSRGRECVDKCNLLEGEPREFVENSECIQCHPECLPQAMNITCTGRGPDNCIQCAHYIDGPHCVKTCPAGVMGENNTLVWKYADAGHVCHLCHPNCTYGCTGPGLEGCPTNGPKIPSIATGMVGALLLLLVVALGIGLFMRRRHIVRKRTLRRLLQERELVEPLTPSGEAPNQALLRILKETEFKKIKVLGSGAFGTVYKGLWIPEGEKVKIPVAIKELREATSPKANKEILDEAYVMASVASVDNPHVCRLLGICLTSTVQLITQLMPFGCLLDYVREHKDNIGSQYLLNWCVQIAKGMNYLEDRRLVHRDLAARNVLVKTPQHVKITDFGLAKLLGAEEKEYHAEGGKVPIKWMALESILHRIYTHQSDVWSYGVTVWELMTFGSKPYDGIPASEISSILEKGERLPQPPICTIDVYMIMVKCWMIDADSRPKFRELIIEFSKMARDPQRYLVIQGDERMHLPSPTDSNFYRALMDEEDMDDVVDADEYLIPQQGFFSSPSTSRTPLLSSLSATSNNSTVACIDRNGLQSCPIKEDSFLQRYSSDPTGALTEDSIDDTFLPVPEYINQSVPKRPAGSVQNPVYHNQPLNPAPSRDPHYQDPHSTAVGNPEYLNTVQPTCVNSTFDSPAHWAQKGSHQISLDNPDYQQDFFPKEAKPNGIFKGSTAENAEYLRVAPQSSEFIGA
Protocol: as §4, §5, §6

[6] = target: Ba/F3-HER2-A775-G776 ins YVMA (Homo sapiens, UniProt P04626, DUP772-775, cells depend on it); experiment: Cell proliferation inhibition (CellTiter-Glo), HER2 exon 20 insertion engineered cells; type: cell-based; settings: 72 h, CellTiter-Glo; read-out: IC50, Ba/F3-HER2-A775-G776ins YVMA
Chain of Ba/F3-HER2-A775-G776 ins YVMA (P04626 with tags, fused parts or gaps DUP772-775): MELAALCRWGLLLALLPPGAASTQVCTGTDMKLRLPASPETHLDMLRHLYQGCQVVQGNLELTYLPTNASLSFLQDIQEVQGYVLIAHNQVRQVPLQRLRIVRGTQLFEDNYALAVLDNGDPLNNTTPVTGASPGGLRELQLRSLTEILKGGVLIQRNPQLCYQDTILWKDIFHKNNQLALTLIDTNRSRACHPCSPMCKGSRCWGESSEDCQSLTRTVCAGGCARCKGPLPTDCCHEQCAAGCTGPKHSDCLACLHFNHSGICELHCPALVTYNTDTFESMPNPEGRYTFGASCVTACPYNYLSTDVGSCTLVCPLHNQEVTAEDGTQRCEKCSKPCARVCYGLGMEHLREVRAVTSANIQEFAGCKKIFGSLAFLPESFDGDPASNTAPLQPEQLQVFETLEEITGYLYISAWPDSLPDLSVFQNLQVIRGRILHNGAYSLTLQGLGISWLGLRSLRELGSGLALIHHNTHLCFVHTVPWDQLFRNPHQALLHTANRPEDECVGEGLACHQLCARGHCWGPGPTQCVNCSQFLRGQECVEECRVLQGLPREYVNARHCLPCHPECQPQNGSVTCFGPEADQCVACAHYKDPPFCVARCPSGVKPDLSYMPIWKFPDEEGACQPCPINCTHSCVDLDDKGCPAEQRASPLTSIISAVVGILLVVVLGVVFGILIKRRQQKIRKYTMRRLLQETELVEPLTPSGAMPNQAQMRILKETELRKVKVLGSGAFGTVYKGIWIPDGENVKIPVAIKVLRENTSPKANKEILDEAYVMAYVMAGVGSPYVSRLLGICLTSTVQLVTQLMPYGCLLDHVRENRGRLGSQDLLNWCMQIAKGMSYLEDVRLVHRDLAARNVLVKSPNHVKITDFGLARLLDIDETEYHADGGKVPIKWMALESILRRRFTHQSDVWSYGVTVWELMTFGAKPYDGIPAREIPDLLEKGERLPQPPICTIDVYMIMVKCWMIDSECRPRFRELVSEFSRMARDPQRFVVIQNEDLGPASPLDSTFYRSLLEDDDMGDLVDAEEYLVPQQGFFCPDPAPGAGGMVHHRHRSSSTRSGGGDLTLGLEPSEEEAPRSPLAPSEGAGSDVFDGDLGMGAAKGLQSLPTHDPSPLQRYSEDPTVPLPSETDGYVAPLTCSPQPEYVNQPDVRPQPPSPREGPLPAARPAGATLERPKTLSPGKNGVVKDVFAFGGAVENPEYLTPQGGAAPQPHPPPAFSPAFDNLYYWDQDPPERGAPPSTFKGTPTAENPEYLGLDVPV
Protocol: as §4, §5, §6

[7] = tested on: exon 20 insertion mutations in EGFR and HER2; settings: reported clinical trial results; cited from earlier work

Q: What does the source list for `C=CC(=O)Nc1cc(Nc2nccc(Nc3cc(Cl)c(F)cc3C(C)(C)O)n2)c(OC)cc1N1CC[C@@H](N(C)C)C1` [DZD9008, reference compound]?
A: objective remission rate (EGFR exon 20ins): 40%; TGI (%) [1]: 32.55%; IC50 (PC9): 30 to 100 nM; IC50 (NCI-H1975): ≤ 30 nM; GI50 [2]: ≤ 30 nM; GI50 [3]: 30 to 100 nM; GI50 [4]: 30 to 100 nM; GI50 [5]: ≤ 30 nM; GI50 [6]: 30 to 100 nM

Q: For `C=CC(=O)Nc1cc(Nc2ncc(C(=O)OC(C)C)c(-c3cn(C)c4ccccc34)n2)c(OC)cc1N(C)CCN(C)C` [TAK-788, reference compound], which “TGI (%)” value [1] is on record?
A: 68.03%

Q: And the IC50 (PC9)?
A: ≤ 30 nM

Q: What about the IC50 (NCI-H1975) of the same compound?
A: ≤ 30 nM

Q: And the objective remission rate [7]?
A: 43%

Q: And the GI50 [2]?
A: ≤ 30 nM

Q: What about the GI50 [3] of the same compound?
A: ≤ 30 nM

Q: What about the GI50 [4] of the same compound?
A: ≤ 30 nM

Q: What about the GI50 [5] of the same compound?
A: ≤ 30 nM

Q: What about the GI50 [6] of the same compound?
A: ≤ 30 nM

Source: patent publication US20260250270A1, “Compound Used as Kinase Inhibitor and Use Thereof” (TYK MEDICINES, INC., priority 2022, published 2026)
